Laboratory results published in patent US20110195900A1, “PEPTIDIC PTH RECEPTOR AGONISTS” (FERRING B.V., priority 2008, published 2011).
Where two headings read alike, the source gives them in different places. Non-standard residues stand in square brackets, D forms with d. Residues, ends and D or L forms follow the SMILES beside them. 1Nal = N[C@@H](Cc1cccc2ccccc12)C(=O)O; 2Nal = N[C@@H](Cc1ccc2ccccc2c1)C(=O)O; β3hI = CC[C@H](C)[C@H](N)CC(=O)O; Nle = CCCC[C@H](N)C(=O)O; βAla = NCCC(=O)O

Biological target: T1, human PTH-1 receptor (Homo sapiens, UniProt Q03431)
T1 construct: expressed in transfected cells; host or cells: HEK-293
T1 sequence (Q03431 27-593): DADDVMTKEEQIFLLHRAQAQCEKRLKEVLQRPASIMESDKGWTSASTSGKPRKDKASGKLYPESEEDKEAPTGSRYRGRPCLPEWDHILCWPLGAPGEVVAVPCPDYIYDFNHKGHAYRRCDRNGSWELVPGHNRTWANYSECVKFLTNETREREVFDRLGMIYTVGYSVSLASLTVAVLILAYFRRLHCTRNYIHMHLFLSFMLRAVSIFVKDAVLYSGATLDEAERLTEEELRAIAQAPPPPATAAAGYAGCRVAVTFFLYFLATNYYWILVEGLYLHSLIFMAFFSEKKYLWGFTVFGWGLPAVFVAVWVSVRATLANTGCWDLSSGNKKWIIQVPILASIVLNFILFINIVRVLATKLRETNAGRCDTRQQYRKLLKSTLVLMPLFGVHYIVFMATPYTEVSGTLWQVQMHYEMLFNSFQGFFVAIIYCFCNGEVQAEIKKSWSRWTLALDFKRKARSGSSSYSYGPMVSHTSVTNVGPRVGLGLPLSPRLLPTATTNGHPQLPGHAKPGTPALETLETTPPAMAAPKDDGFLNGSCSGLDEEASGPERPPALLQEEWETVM
Test: Reporter gene assay (CRE-luciferase) for agonist activity in transiently transfected HEK-293 cells
Format: cell-based
Conditions: for hPTHR-2/hPTHR-1: selectivity for hPTH-1 receptor over hPTH-2 receptor
Experimental: Agonist activity of compounds on the human PTH-1 receptor was determined in a reporter gene assay by transiently transfecting HEK-293 cells with plasmids encoding human PTH-1 receptor under control of the SV40 promoter and a luciferase reporter gene under control of cAMP responsive elements (CRE). See Himmler et al, J. Recept. Res. 13 (1993) 79-94, for further guidance on this assay. Transfected cells were exposed to serial dilutions of compounds for 4-5 hours followed by lysis of cells, determination of luciferase activity, and determination of compound efficacies and EC50 values through non-linear regression.
PTH (1-34) was used as an internal control in each experiment and compounds were tested in at least three independent experiments. To determine selectivity, compounds were tested in luciferase-based transcriptional reporter gene assays expressing the human PTH-2 receptor.

Row | Structure (SMILES) | EC50 | hPTHR-2/hPTHR-1 (Table 3, ratio of EC50 values) | EC50 (Table 3, HEK-293 cells, CRE-luciferase, 4-5 hours exposure, read-out: hPTHR-1 EC50) | EC50 (Table 4 comparison data, HEK-293 cells, CRE-luciferase, read-out: hPTHR-1 EC50) | Selectivity hPTHR-2/hPTHR-1 (Table 4 comparison data, ratio of EC50 values)
1 | CCCC[C@H](NC(=O)[C@H](CC(C)C)NC(=O)[C@H](CCC(N)=O)NC(=O)[C@@H](NC(=O)[C@H](CCC(=O)O)NC(=O)[C@H](CO)NC(=O)[C@@H](NC(=O)[C@@H](N)CO)C(C)C)[C@@H](C)CC)C(=O)N[C@@H](Cc1c[nH]cn1)C(=O)N[C@@H](CC(N)=O)C(=O)N[C@@H](CC(C)C)C(=O)NCC(=O)N[C@@H](CCCCN)C(=O)N[C@@H](Cc1c[nH]cn1)C(=O)N[C@@H](CC(C)C)C(=O)N[C@@H](CC(N)=O)C(=O)N[C@@H](CO)C(=O)N[C@H](CC(=O)N[C@@H](CCC(=O)O)C(=O)N[C@@H](CCCNC(=N)N)C(=O)N[C@H](C(=O)N[C@@H](CCC(=O)O)C(=O)N[C@@H](Cc1cccc2ccccc12)C(=O)N[C@@H](CC(C)C)C(=O)N[C@@H](CCCNC(=N)N)C(=O)N[C@@H](CCCCN)C(=O)N[C@@H](CC(C)C)C(=O)N[C@@H](CC(C)C)C(=O)N[C@@H](CCC(N)=O)C(=O)N[C@@H](CC(=O)O)C(=O)N[C@H](C(=O)N[C@@H](Cc1c[nH]cn1)C(=O)N[C@@H](CC(N)=O)C(=O)N[C@@H](CCC(=O)O)C(N)=O)C(C)C)C(C)C)[C@@H](C)CC [SEQ ID NO: 29, [Nle^8, β-hIle^18,1-Nal^23, Leu^27, Glu^34] hPTH (1-34)-NH2] (H-SVSEIQL[Nle]HNLGKHLNS[β3hI]ERVE[1Nal]LRKLLQDVHNE-NH2; N-terminus assumed) | 120 pM | 474 | – | – | –
2 | CCCC[C@H](NC(=O)CCNC(=O)[C@H](CC(N)=O)NC(=O)[C@H](CC(C)C)NC(=O)[C@H](Cc1c[nH]cn1)NC(=O)[C@H](CCCCN)NC(=O)CNC(=O)[C@H](CC(C)C)NC(=O)[C@H](CC(N)=O)NC(=O)[C@H](Cc1c[nH]cn1)NC(=O)[C@H](CCCC)NC(=O)[C@H](CC(C)C)NC(=O)[C@H](CCC(N)=O)NC(=O)[C@@H](NC(=O)[C@H](CCC(=O)O)NC(=O)[C@H](CO)NC(=O)[C@@H](NC(=O)[C@@H](N)CO)C(C)C)[C@@H](C)CC)C(=O)N[C@@H](CCC(=O)O)C(=O)N[C@@H](CCCNC(=N)N)C(=O)N[C@H](C(=O)N[C@@H](CCC(=O)O)C(=O)N[C@@H](Cc1cccc2ccccc12)C(=O)N[C@@H](CC(C)C)C(=O)N[C@@H](CCCNC(=N)N)C(=O)N[C@@H](CCCCN)C(=O)N[C@@H](CC(C)C)C(=O)N[C@@H](CC(C)C)C(=O)N[C@@H](CCC(N)=O)C(=O)N[C@@H](CC(=O)O)C(=O)N[C@H](C(=O)N[C@@H](Cc1c[nH]cn1)C(=O)N[C@@H](CC(N)=O)C(=O)N[C@@H](Cc1ccccc1)C(N)=O)C(C)C)C(C)C [SEQ ID NO: 15, [Nle^8,18, β-Ala^17,1-Nal^23, Leu^27] hPTH (1-34)-NH2] (H-SVSEIQL[Nle]HNLGKHLN[βAla][Nle]ERVE[1Nal]LRKLLQDVHNF-NH2) | 120 pM | 389 | – | – | –
3 | CCCC[C@H](NC(=O)[C@H](CC(C)C)NC(=O)[C@H](CCC(N)=O)NC(=O)[C@@H](NC(=O)[C@H](CCC(=O)O)NC(=O)[C@H](CO)NC(=O)[C@@H](NC(=O)[C@@H](N)CO)C(C)C)[C@@H](C)CC)C(=O)N[C@@H](Cc1c[nH]cn1)C(=O)N[C@@H](CC(N)=O)C(=O)N[C@@H](CC(C)C)C(=O)NCC(=O)N[C@@H](CCCCN)C(=O)N[C@@H](Cc1c[nH]cn1)C(=O)N[C@@H](CC(C)C)C(=O)N[C@@H](CC(N)=O)C(=O)N[C@@H](CO)C(=O)N[C@H](CC(=O)N[C@@H](CCC(=O)O)C(=O)N[C@@H](CCCNC(=N)N)C(=O)N[C@H](C(=O)N[C@@H](CCC(=O)O)C(=O)N[C@@H](Cc1cccc2ccccc12)C(=O)N[C@@H](CC(C)C)C(=O)N[C@@H](CCCNC(=N)N)C(=O)N[C@@H](CCCCN)C(=O)N[C@@H](CCCCN)C(=O)N[C@@H](CC(C)C)C(=O)N[C@@H](CCC(N)=O)C(=O)N[C@@H](CC(=O)O)C(=O)N[C@H](C(=O)N[C@@H](Cc1c[nH]cn1)C(=O)N[C@@H](CC(N)=O)C(=O)N[C@@H](Cc1ccccc1)C(=O)O)C(C)C)C(C)C)[C@@H](C)CC [SEQ ID NO: 8, [Nle^8, β-hIle^18,1-Nal^23] hPTH (1-34)-OH] (H-SVSEIQL[Nle]HNLGKHLNS[β3hI]ERVE[1Nal]LRKKLQDVHNF-OH) | – | 124 | 210 pM | – | –
4 | CCCC[C@H](NC(=O)[C@H](CC(C)C)NC(=O)[C@H](CCC(N)=O)NC(=O)[C@@H](NC(=O)[C@H](CCC(=O)O)NC(=O)[C@H](CO)NC(=O)[C@@H](NC(=O)[C@@H](N)CO)C(C)C)[C@@H](C)CC)C(=O)N[C@@H](Cc1c[nH]cn1)C(=O)N[C@@H](CC(N)=O)C(=O)N[C@@H](CC(C)C)C(=O)NCC(=O)N[C@@H](CCCCN)C(=O)N[C@@H](Cc1c[nH]cn1)C(=O)N[C@@H](CC(C)C)C(=O)N[C@@H](CC(N)=O)C(=O)N[C@@H](CO)C(=O)N[C@H](CC(=O)N[C@@H](CCC(=O)O)C(=O)N[C@@H](CCCNC(=N)N)C(=O)N[C@H](C(=O)N[C@@H](CCC(=O)O)C(=O)N[C@@H](Cc1ccc2ccccc2c1)C(=O)N[C@@H](CC(C)C)C(=O)N[C@@H](CCCNC(=N)N)C(=O)N[C@@H](CCCCN)C(=O)N[C@@H](CCCCN)C(=O)N[C@@H](CC(C)C)C(=O)N[C@@H](CCC(N)=O)C(=O)N[C@@H](CC(=O)O)C(=O)N[C@H](C(=O)N[C@@H](Cc1c[nH]cn1)C(=O)N[C@@H](CC(N)=O)C(=O)N[C@@H](Cc1ccccc1)C(N)=O)C(C)C)C(C)C)[C@@H](C)CC [SEQ ID NO: 53, [Nle^8, β-hIle^18,2-Nal^23] hPTH (1-34)-NH2] (H-SVSEIQL[Nle]HNLGKHLNS[β3hI]ERVE[2Nal]LRKKLQDVHNF-NH2) | – | – | – | 250 pM | 170
5 | CCCC[C@H](NC(=O)CCNC(=O)[C@H](CC(N)=O)NC(=O)[C@H](CC(C)C)NC(=O)[C@H](Cc1c[nH]cn1)NC(=O)[C@H](CCCCN)NC(=O)CNC(=O)[C@H](CC(C)C)NC(=O)[C@H](CC(N)=O)NC(=O)[C@H](Cc1c[nH]cn1)NC(=O)[C@H](CCCC)NC(=O)[C@H](CC(C)C)NC(=O)[C@H](CCC(N)=O)NC(=O)[C@@H](NC(=O)[C@H](CCC(=O)O)NC(=O)[C@H](CO)NC(=O)[C@@H](NC(=O)[C@H](C)N)C(C)C)[C@@H](C)CC)C(=O)N[C@@H](CCC(=O)O)C(=O)N[C@@H](CCCNC(=N)N)C(=O)N[C@H](C(=O)N[C@@H](CCC(=O)O)C(=O)N[C@@H](Cc1cccc2ccccc12)C(=O)N[C@@H](CC(C)C)C(=O)N[C@@H](CCCNC(=N)N)C(=O)N[C@@H](CCCCN)C(=O)N[C@@H](CC(C)C)C(=O)N[C@@H](CC(C)C)C(=O)N[C@@H](CCC(N)=O)C(=O)N[C@@H](CC(=O)O)C(=O)N[C@H](C(=O)N[C@@H](Cc1c[nH]cn1)C(=O)N[C@@H](CC(N)=O)C(=O)N[C@@H](Cc1ccccc1)C(N)=O)C(C)C)C(C)C [SEQ ID NO: 14, [Ala^1, Nle^8,18, β-Ala^17,1-Nal^23, Leu^27] hPTH (1-34)-NH2] (H-AVSEIQL[Nle]HNLGKHLN[βAla][Nle]ERVE[1Nal]LRKLLQDVHNF-NH2; N-terminus assumed) | – | 449 | – | – | –
6 | CCCC[C@H](NC(=O)[C@H](CC(C)C)NC(=O)[C@H](CCC(N)=O)NC(=O)[C@@H](NC(=O)[C@H](CCC(=O)O)NC(=O)[C@H](CO)NC(=O)[C@@H](NC(=O)[C@@H](N)CO)C(C)C)[C@@H](C)CC)C(=O)N[C@@H](Cc1c[nH]cn1)C(=O)N[C@@H](CC(N)=O)C(=O)N[C@@H](CC(C)C)C(=O)NCC(=O)N[C@@H](CCCCN)C(=O)N[C@@H](Cc1c[nH]cn1)C(=O)N[C@@H](CC(C)C)C(=O)N[C@@H](CC(N)=O)C(=O)N[C@@H](CO)C(=O)N[C@H](CC(=O)N[C@@H](CCC(=O)O)C(=O)N[C@@H](CCCNC(=N)N)C(=O)N[C@H](C(=O)N[C@@H](CCC(=O)O)C(=O)N[C@@H](Cc1cccc2ccccc12)C(=O)N[C@@H](CC(C)C)C(=O)N[C@@H](CCCNC(=N)N)C(=O)N[C@@H](CCCCN)C(=O)N[C@@H](CC(C)C)C(=O)N[C@@H](CC(C)C)C(=O)N[C@@H](CCC(N)=O)C(=O)N[C@@H](CC(=O)O)C(=O)N[C@H](C(=O)N[C@@H](Cc1c[nH]cn1)C(=O)N[C@@H](CCC(=O)O)C(=O)N[C@@H](Cc1ccccc1)C(N)=O)C(C)C)C(C)C)[C@@H](C)CC [SEQ ID NO: 27, [Nle^8, β-hIle^18,1-Nal^23, Leu^27, Glu^33] hPTH (1-34)-NH2] (H-SVSEIQL[Nle]HNLGKHLNS[β3hI]ERVE[1Nal]LRKLLQDVHEF-NH2; N-terminus assumed) | 120 pM | 344 | – | – | –
